Results: patent US20040010001A1, “Methods and compositions for modulating cell proliferation and cell death” (priority 1999, published 2004)
Where two headings read alike, the source gives them in different places.

How the values were obtained:
Type in all cases: cell-based
[1] = test system: Human breast BC19 (subline of MCF7 transfected with mdr1); assay: FGF-induced resistance, inhibition of BrdU incorporation; details: read-out: Drug concentration needed to produce 50% inhibition
Experimental: (§1) Prior to drug treatment, cells were incubated for 4 days with tumor CM or with r-aFGF ad/or r-bFGF-containing medium, supplemented with 1% FBS (final protein concentration adjusted to 2 mg/ml). The medium was renewed every other day.
(§2) The antiproliferative drug effect in histocultures was measured as inhibition of ^3H-thymidine incorporation quantified by autoradiography (Yen, W. C. et al. (1996) Pharm. Res. 13:1305-1312) and, for monolayers, as inhibition of BrdU incorporation or as reduction of total proteins by the sulforhodamine B assay (Au, J. L.-S. et al. (1998) Cancer Res. 58:2141-2148). For the latter, the two assays yielded qualitatively similar results. Cell kill induced by 96-hour drug treatment was monitored by the release of LDH into the culture medium. LDH activity was monitored by the conversion of tetrazolium to formazan (detected at 490 nm).
(§3) The experimental conditions are described briefly below. Cells were pretreated with human recombinant r-aFGF and/or r-bFGF for 96 hours and then with drugs for 96 hours. For the studies on cells derived from the human prostate, lung, pharynx, colon and breast cancer cells, the drug effect was determined by the inhibition of BrdU incorporation. For the study on the human leukemic cells, the drug effect was measured by the MTT assay, which measures the number of metabolically active cells (Alley, M. C. et al (1988) Cancer Res 48:589-601).

Human pharynx FaDu = assay: as above; details: read-out: Drug concentration needed to produce 50% inhibition
Experimental: as §1, §2, §3

Human prostate PC3 = assay: as above; details: Homo sapiens, read-out: Drug concentration needed to produce 50% inhibition
Experimental: as §1, §2, §3

Human colon HT-29 = assay: as above; details: read-out: Drug concentration needed to produce 50% inhibition
Experimental: as §1, §2, §3

Human breast MCF7 = assay: as above; details: read-out: Drug concentration needed to produce 50% inhibition
Experimental: as §1, §2, §3

Rat prostate MAT-LyLu = assay: as above; details: read-out: Drug concentration needed to produce 50% inhibition
Experimental: as §1, §2, §3

Human lung A459 = assay: as above; details: read-out: Drug concentration needed to produce 50% inhibition
Experimental: as §1, §2, §3

[2] = test system: rat primary tumors, histocultures; assay: Drug effect in histocultures of rat primary tumors (inhibition of 3H-thymidine incorporation); details: Histocultures, Primary, 96 hours, read-out: Concentration producing 50% inhibition
[3] = test system: rat lymph node metastasis cells, monolayers; assay: Drug effect in monolayers of rat lymph node metastasis cells (inhibition of bromodeoxyuridine incorporation); details: 96 h, read-out: Concentration producing 50% inhibition
[4] = test system: Human prostate PC3 tumor cells; assay: Drug treatment and extracellular bFGF (ELISA), LDH release, cell number; details: for Extracellular LDH, % of control / Extracellular bFGF, % of control / Extracellular concentration bFGF: 72 hours
Experimental: The experimental conditions are described briefly below. […] The remaining cell number at the end of treatment was counted using a Coulter counter. The extracellular bFGF concentration was measured using ELISA. The release of lactate dehydrogenase (LDH) into the extracellular culture medium is indicative of cell death and gives a measure of the release of cellular content into the culture medium. If the increase in extracellular bFGF level is due to the release of bFGF upon cell death and lysis, the increase in bFGF will be accompanied by an increase in LDH in the same extent. This would result in an higher bFGF level and a constant bFGF-to-LDH ratio. On the other hand, an increase in extracellular bFGF due to an increase in bFGF production and release of bFGF from cells by processes other than cell lysis will result in an higher bFGF level and an higher bFGF-to-LDH ratio.

[5] = 96 h, r-aFGF + r-bFGF 0.04 ± 1 ng/ml
[6] = 96 h, r-aFGF + r-bFGF 0.08 ± 1 ng/ml
[7] = 96 h, r-aFGF + r-bFGF 0.32 ± 1 ng/ml
[8] = 96 h, r-aFGF + r-bFGF 0.64 ± 1 ng/ml
[9] = 96 h, r-aFGF + r-bFGF 1 ± 1 ng/ml

For `COc1cccc2c1C(=O)c1c(O)c3c(c(O)c1C2=O)C[C@@](O)(C(=O)CO)C[C@@H]3O[C@H]1C[C@H](N)[C@H](O)[C@H](C)O1` [Doxorubicin], the IC50 ([1]; r-bFGF 0 ng/ml) was 128 nM, the IC50 ([1]; r-bFGF 0.01 ng/ml) was 150 nM and the IC50 ([1]; r-bFGF 0.1 ng/ml) was 270 nM. It also gave an IC50 ([1]; r-bFGF 1 ng/ml) of 407 nM, an IC50 (Human pharynx FaDu; 96 h, r-aFGF + r-bFGF 0 ng/ml) of 13.5 nM and an IC50 (Human pharynx FaDu; [5]) of 13.5 nM. It also gave an IC50 (Human pharynx FaDu; [6]) of 14 nM, an IC50 (Human pharynx FaDu; 96 h, r-aFGF + r-bFGF 0.16 ± 1 ng/ml) of 13.7 nM and an IC50 (Human pharynx FaDu; [7]) of 14.1 nM. It also gave an IC50 (Human pharynx FaDu; [8]) of 27.5 nM, an IC50 (Human pharynx FaDu; [9]) of 54 nM and an IC50 (Human pharynx FaDu; r-aFGF 0 ng/ml) of 13.5 nM. For the same compound, the IC50 (Human pharynx FaDu; r-aFGF 1 ng/ml) was 13 nM, the IC50 (Human pharynx FaDu; r-aFGF 10 ng/ml) was 13.7 nM and the IC50 (Human pharynx FaDu; r-aFGF 50 ng/ml) was 14 nM. It also gave an IC50 (Human pharynx FaDu; r-bFGF 0 ng/ml) of 14.2 nM, an IC50 (Human pharynx FaDu; r-bFGF 1 ng/ml) of 13.9 nM and an IC50 (Human pharynx FaDu; r-bFGF 10 ng/ml) of 14.1 nM. It also gave an IC50 (Human pharynx FaDu; r-bFGF 50 ng/ml) of 13.7 nM, an IC50 (Human prostate PC3; 96 h, r-aFGF + r-bFGF 0 ng/ml) of 8.2 nM and an IC50 (Human prostate PC3; [5]) of 8.5 nM. For the same compound, the IC50 (Human prostate PC3; [6]) was 15.2 nM, the IC50 (Human prostate PC3; [7]) was 62.2 nM and the IC50 (Human prostate PC3; [8]) was 84.8 nM. For the same compound, the IC50 (Human prostate PC3; [9]) was 107 nM, the IC50 (Human prostate PC3; 96 h, r-aFGF + r-bFGF) was 35.3 nM and the IC50 (Human prostate PC3; r-aFGF 0 ng/ml) was 8.2 nM. The IC50 (Human prostate PC3; r-aFGF 1 ng/ml) was 8.3 nM, the IC50 (Human prostate PC3; r-aFGF 10 ng/ml) was 8.1 nM and the IC50 (Human prostate PC3; r-aFGF 50 ng/ml) was 8.4 nM. For the same compound, the IC50 (Human prostate PC3; r-bFGF 0 ng/ml) was 8.1 nM, the IC50 (Human prostate PC3; r-bFGF 1 ng/ml) was 8.51 nM and the IC50 (Human prostate PC3; r-bFGF 10 ng/ml) was 23.8 nM. It also gave an IC50 (Human prostate PC3; r-bFGF 50 ng/ml) of 50.8 nM, an IC50 (Human colon HT-29; HT-29, 96 h, r-aFGF + r-bFGF 0 ng/ml) of 30.2 nM and an IC50 (Human colon HT-29; HT-29, 96 h, r-aFGF + r-bFGF 0.04 ± 1 ng/ml) of 29.1 nM. It also gave an IC50 (Human colon HT-29; HT-29, 96 h, r-aFGF + r-bFGF 0.08 ± 1 ng/ml) of 30 nM, an IC50 (Human colon HT-29; HT-29, 96 h, r-aFGF + r-bFGF 0.16 ± 1 ng/ml) of 30.5 nM and an IC50 (Human colon HT-29; HT-29, 96 h, r-aFGF + r-bFGF 0.32 ± 1 ng/ml) of 48.1 nM. The IC50 (Human colon HT-29; HT-29, 96 h, r-aFGF + r-bFGF 0.64 ± 1 ng/ml) was 72.7 nM, the IC50 (Human colon HT-29; HT-29, 96 h, r-aFGF + r-bFGF 1 ± 1 ng/ml) was 131 nM and the IC50 (Human colon HT-29; HT-29, r-aFGF 0 ng/ml) was 30.2 nM. For the same compound, the IC50 (Human colon HT-29; HT-29, r-aFGF 1 ng/ml) was 32.1 nM, the IC50 (Human colon HT-29; HT-29, r-aFGF 10 ng/ml) was 30.3 nM and the IC50 (Human colon HT-29; HT-29, r-aFGF 50 ng/ml) was 30 nM. The IC50 (Human colon HT-29; HT-29, r-bFGF 0 ng/ml) was 24.1 nM, the IC50 (Human colon HT-29; HT-29, r-bFGF 1 ng/ml) was 24.4 nM and the IC50 (Human colon HT-29; HT-29, r-bFGF 10 ng/ml) was 24.5 nM. It also gave an IC50 (Human colon HT-29; HT-29, r-bFGF 50 ng/ml) of 26.1 nM, an IC50 (Human breast MCF7; MCF7, r-bFGF 0 ng/ml) of 16.9 nM and an IC50 (Human breast MCF7; MCF7, r-bFGF 0.01 ng/ml) of 21.3 nM. The IC50 (Human breast MCF7; MCF7, r-bFGF 0.1 ng/ml) was 37.6 nM, the IC50 (Human breast MCF7; MCF7, r-bFGF 1 ng/ml) was 595 nM and the IC50 (Rat prostate MAT-LyLu; r-bFGF 0 ng/ml) was 10.3 nM. The IC50 (Rat prostate MAT-LyLu; r-bFGF 1 ng/ml) was 18.3 nM, the IC50 (Rat prostate MAT-LyLu; r-bFGF 10 ng/ml) was 540 nM and the IC50 (Rat prostate MAT-LyLu; r-bFGF 50 ng/ml) was 238 nM. It also gave an IC50 (Human lung A459; A459, 96 h, r-aFGF + r-bFGF 0 ng/ml) of 122 nM, an IC50 (Human lung A459; A459, 96 h, r-aFGF + r-bFGF 0.04 ± 1 ng/ml) of 118 nM and an IC50 (Human lung A459; A459, 96 h, r-aFGF + r-bFGF 0.08 ± 1 ng/ml) of 159 nM. It also gave an IC50 (Human lung A459; A459, 96 h, r-aFGF + r-bFGF 0.16 ± 1 ng/ml) of 238 nM, an IC50 (Human lung A459; A459, 96 h, r-aFGF + r-bFGF 0.32 ± 1 ng/ml) of 309 nM and an IC50 (Human lung A459; A459, 96 h, r-aFGF + r-bFGF 0.64 ± 1 ng/ml) of 386 nM. For the same compound, the IC50 (Human lung A459; A459, 96 h, r-aFGF + r-bFGF 1 ± 1 ng/ml) was 582 nM, the IC50 (Human lung A459; A459, r-aFGF 0 ng/ml) was 122 nM and the IC50 (Human lung A459; A459, r-aFGF 1 ng/ml) was 120 nM. It also gave an IC50 (Human lung A459; A459, r-aFGF 10 ng/ml) of 123 nM, an IC50 (Human lung A459; A459, r-aFGF 50 ng/ml) of 118 nM and an IC50 (Human lung A459; A459, r-bFGF 0 ng/ml) of 119 nM. For the same compound, the IC50 (Human lung A459; A459, r-bFGF 1 ng/ml) was 118 nM, the IC50 (Human lung A459; A459, r-bFGF 10 ng/ml) was 238 nM and the IC50 (Human lung A459; A459, r-bFGF 50 ng/ml) was 285 nM. For the same compound, the IC50 [2] was 18 ± 11 nM, the IC50 ([3]; Monolayers (passage 0)) was 31 ± 2.3 nM and the IC50 ([3]; Monolayers (passage 1)) was 17.9 ± 1.2 nM. For the same compound, the IC50 ([3]; Monolayers (passage 2)) was 11 ± 0.4 nM, the IC50 ([3]; Monolayers (passage 3)) was 7.8 ± 0.5 nM and the “Remaining cell number at 72 hours (% of control)” value ([4]; drug concentration 20 NM) was 84%. The “Remaining cell number at 72 hours × 10^6” value ([4]; drug concentration 20 NM) was 2.1 × 10^6, the “Extracellular LDH, % of control” value ([4]; drug concentration 20 NM) was 119 % of control and the “Extracellular bFGF, % of control” value ([4]; drug concentration 20 NM) was 124 % of control. For the same compound, the “Extracellular concentration bFGF” value ([4]; drug concentration 20 NM) was 5.87 pg/mL, the “Remaining cell number at 72 hours (% of control)” value ([4]; drug concentration 60 NM) was 48% and the “Remaining cell number at 72 hours × 10^6” value ([4]; drug concentration 60 NM) was 1.2 × 10^6. The “Extracellular LDH, % of control” value ([4]; drug concentration 60 NM) was 173 % of control, the “Extracellular bFGF, % of control” value ([4]; drug concentration 60 NM) was 239 % of control and the “Extracellular concentration bFGF” value ([4]; drug concentration 60 NM) was 11.3 pg/mL. For the same compound, the “Remaining cell number at 72 hours (% of control)” value ([4]; drug concentration 200 NM) was 16%, the “Remaining cell number at 72 hours × 10^6” value ([4]; drug concentration 200 NM) was 0.4 × 10^6 and the “Extracellular LDH, % of control” value ([4]; drug concentration 200 NM) was 316 % of control. For the same compound, the “Extracellular bFGF, % of control” value ([4]; drug concentration 200 NM) was 461 % of control and the “Extracellular concentration bFGF” value ([4]; drug concentration 200 NM) was 21.8 pg/mL.
